# According to patent US20050209310A1, “Methods for modulating tumor growth and metastasis” (priority 2000, published 2005):
# Key:
# [1] = test system: M5076 murine fibrosarcoma; test: In vivo antitumor testing, sc M5076 murine fibrosarcoma; settings: for complete response (disappearance of tumors): CA1P + carboplatin vs either agent alone (FIG. 11); for minimum effective dose required for synergistic enhancement: in combination with carboplatin (FIG. 10)
# Protocol: (§1) The following protocols are provided to facilitate the practice of Examples I and II. • Drug administration: For administration to rodents, CA4P was dissolved in normal saline (0.9% NaCl). Paclitaxel was dissolved in a 50/50 mixture of ethanol and Cremophor® and stored at 4° C.; final dilution of paclitaxel was obtained immediately before drug administration with NaCl 0.9%. Fresh preparation of paclitaxel was employed to avoid precipitation. CPT-11 was dissolved in normal saline. • The volume of all compounds injected was 0.01 ml/g of mice, and 0.005 ml/g of rats. • In Vivo Antitumor Testing: The following tumor models were used: A2780 human ovarian carcinoma, the murine fibrosarcoma M5076 and M5076/ddp (resistant to cisplatin and carboplatin).
# (§2) The human tumors were maintained in Balb/c nu/nu nude mice. M5076 and M5076ddp were maintained in C57BL/6 mice. Tumors were propagated as subcutaneous transplants in the appropriate mouse strain using tumor fragments obtained from donor mice.
# (§3) The following tumors were passaged in the indicated host strain of mouse: murine M5076 fibrosarcoma (M5076) in C57B1/6 mice; human A2780 ovarian carcinomas in nude mice. Tumor passage occurred biweekly for murine tumors and approximately every two to three weeks for the human tumor line. With regard to efficacy testing, M5076 and M507 6ddp tumors were implanted in (C57B1/6×DBA/2)F1 hybrid mice, and human tumors were implanted in nude mice. All tumor implants for efficacy testing were subcutaneous (sc).
# The required numbers of animals needed to detect a meaningful response were pooled at the start of the experiment and each was given a subcutaneous implant of a tumor fragment (˜50 mg) with a 13-gauge trocar. For treatment of early-stage tumors, the animals were again pooled before distribution to the various treatment and control groups. For treatment of animals with advanced-stage disease, tumors were allowed to grow to the predetermined size window (tumors outside the range were excluded) and animals were evenly distributed to various treatment and control groups. Treatment of each animal was based on individual body weight. Treated animals were checked daily for treatment related toxicity/mortality. Each group of animals was weighed before the initiation of treatment (Wt1) and then again following the last treatment dose (Wt2). The difference in body weight (Wt2−Wt1) provides a measure of treatment-related toxicity.
# Tumor response was determined by measurement of tumors with a caliper twice a week, until the tumors reach a predetermined “target” size of 1 gm. Tumor weights (mg) were estimated from the formula: Tumor weight=(length×width2)÷2 Antitumor activity was evaluated at the maximum tolerated dose (MTD) which is defined as the dose level immediately below which excessive toxicity (i.e. more than one death) occurred. […] When death occurs, the day of death was recorded.
# Tumor response end-point was expressed in terms of tumor growth delay (T−C value), defined as the difference in time (days) required for the treated tumors (T) to reach a predetermined target size compared to those of the control group (C).
# To estimate tumor cell kill, the tumor volume doubling time was first calculated with the formula: TVDT=Median time (days) for control tumors to reach target size−Median time (days) for control tumors to reach half the target size and, Log cell kill=T−C÷(3.32×TVDT).
# Statistical evaluations of data were performed using Gehan's generalized Wilcoxon test.
# [2] = test system: A2780 human ovarian carcinoma; test: In vivo antitumor testing, A2780 human ovarian carcinoma xenograft
# Protocol: as §1, §2, §3
# The required numbers of animals needed to detect a meaningful response were pooled at the start of the experiment and each was given a subcutaneous implant of a tumor fragment (˜50 mg) with a 13-gauge trocar. For treatment of early-stage tumors, the animals were again pooled before distribution to the various treatment and control groups. For treatment of animals with advanced-stage disease, tumors were allowed to grow to the predetermined size window (tumors outside the range were excluded) and animals were evenly distributed to various treatment and control groups. […]
# Tumor response was determined by measurement of tumors with a caliper twice a week, until the tumors reach a predetermined “target” size of 1 gm. Tumor weights (mg) were estimated from the formula: Tumor weight=(length×width2)÷2 Antitumor activity was evaluated at the maximum tolerated dose (MTD) which is defined as the dose level immediately below which excessive toxicity (i.e. more than one death) occurred. […] When death occurs, the day of death was recorded. […]
# To estimate tumor cell kill, the tumor volume doubling time was first calculated with the formula: TVDT=Median time (days) for control tumors to reach target size−Median time (days) for control tumors to reach half the target size and, Log cell kill=T−C÷(3.32×TVDT). […]
# [3] = test system: ES2 human clear cell ovarian carcinoma; test: Multi-drug resistant ES2 ovarian carcinoma model, tumor size and survival; format: in vivo, Fox Chase CB-17 SCID mice
# Protocol: The multi-drug resistant ES2 human clear cell ovarian carcinoma was established by subcutaneous injection of cultured ES2 cells in Fox Chase CB-17 SCID mice. In one experiment, tumor-bearing mice were administered CA4P at a dose of 100 mg/kg (Group II), saline carrier only (Group I), an intraperitoneal (i.p.) injection of paclitaxel at a dose of 9 mg/kg, followed 30 minutes later by an infusion of carboplatin at a dose of 30 mg/kg […], or CA4P (100 mg/kg) followed 24 hours later by paclitaxel and carboplatin as in Group II (Group IV). Treatment with anticancer agents was performed once a week for 4 weeks (i.e. on Day 11, 19, 26, and 33). Tumors in each treatment group (n=2) were measured every 4 days by width and length. Tumor size (i.e. volume) was calculated according to the following formula: Length×Width^2×0.4.
# In a second experiment, tumor-bearing mice were administered CA1P and/or carboplatin and paclitaxel in the same treatment regime as the first experiment.
# [4] = test system: N87 human gastric carcinoma; test: Single agent antitumor activity, N87 xenograft model; settings: in vivo
# [5] = test system: N87 gastric cancer tumor xenografts; test: Tumor perfusion studies of CA1P, N87 xenografts
# [6] = test system: A2780 human ovarian tumor xenografts; test: Tumor perfusion studies of CA1P, A2780 xenografts
# [7] = test system: M5076DDP murine fibrosarcoma; test: In vivo antitumor testing, sc M5076DDP murine fibrosarcoma (resistant to cisplatin and carboplatin); set-up: species or system mice
# Protocol: Fresh preparation of paclitaxel was employed to avoid precipitation.
# M5076 and M5076ddp were maintained in C57BL/6 mice.
# All tumor implants for efficacy testing were subcutaneous (sc).
# The MTD was frequently equivalent to OD. When death occurs, the day of death was recorded.
# M507 6DDP is a murine fibrosarcoma that has developed resistance to cisplatin and cross-resistance to carboplatin. The in vivo antitumor activity of CA4P or CA1P in combination with each of these platinum coordination compounds and CPT-11 were evaluated in M5076DDP tumor bearing mice.
# [8] = test system: sc A2780 human ovarian carcinoma; test: Tumor perfusion, Evans blue dye uptake assay, mice; format: in vivo; settings: iv, optimal dose, Evans blue injected an hour later (FIG. 5A)
# Protocol: (§4) The effects of CA4P disodium salt on tumor perfusion were also studied using the Evans blue dye uptake assay. Mice or rats bearing sc A2780 human ovarian carcinoma were administered an iv dose of CA4P disodium salt. An hour later, Evans blue was injected iv. The amount of Evans blue accumulated in the tumor is proportional to the blood flow through the tumor.
# [9] = test system: sc A2780 human ovarian carcinoma; test: Tumor perfusion, Evans blue dye uptake assay, rats; format: in vivo; settings: iv, optimal dose, Evans blue injected an hour later (FIG. 5B)
# Protocol: as §4
# [10] = Hematological analysis of whole blood, Phase I trial of CA4P; format: in vivo, human
# Protocol: Hematological analysis was performed on whole blood obtained from patients participating in a Phase I trial of CA4P (see Rustin et al., J. Clin. Oncol. (2003)). All patients had histologically confirmed tumors and were either not amenable to standard curative therapy or were refractory to conventional therapy. Blood work was obtained from each patient 1 minute prior to treatment, every 15 minutes for the first hour post-treatment, and at 1.5, 2, 4, 8, 12 and 24 hours following infusion with the first dose of CA4P (52-114 mg/m^2). Art-recognized hematology methods were used in the analysis.
# All full or differential blood cell counts were performed using a hematology flow cytometer (Technicon H2, Bayer Inc.). Total white blood cell (“WBC” or leukocyte) and red blood cell (“RBC” or erythrocyte) counts were established using direct laser flow cytometry. A differential count for leukocyte cells of myeloid origin (e.g. eosinophils, neutrophils, monocytes) was obtained by fluorescent flow cytometry of cells stained for myeloperoxidase. Unstained cells were assumed to be lymphocytes and basophils. Lymphocyte counts were obtained by subtracting those cells that stained […] for a second, basophil-specific cell stain. Mean Corpuscular Volume (MCV) and Mean Corpuscular Haemoglobin (MCH) were also obtained by laser flow cytometry. The haematocrit (Hct) was calculated from the RBC count and the MCV. The coagulant status of each blood sample was determined by measuring fibrinogen content, prothrombin time, and kaolin partial thromboplastin time (when kaolin is used instead of micronised silica as the activator).
# Cell counts were averaged from nineteen patients treated with a range of CA4P doses (52 to 114 mg/m^2). The results of the complete hematological analysis obtained at 4 and 24 hours post-treatment are presented in FIG. 18 as a percentage of the corresponding pretreatment value. […] The increase in white blood cells occurred despite a significant decrease in lymphocyte count (i.e. T and B-lymphocytes). […] The more than 2-fold increase in neutrophils and more than 20% decrease in lymphocytes was transient however, as white blood cell counts returned to normal levels within 24 hours of treatment.
# [11] = 4 hours following treatment, CA4P 52 to 114 mg/m^2, nineteen patients
smiles,measurement,setting,value
"COc1cc(/C=C\c2ccc(OC)c(OP(=O)(O)O)c2OP(=O)(O)O)cc(OC)c1OC [CA1P, combretastatin A-1 diphosphate]",complete response (disappearance of tumors),[1],not observed
same,minimum effective dose required for synergistic enhancement,[1],4 to 8 mg/kg
same,log cell kill (LCK),"[2]; CA1P at MTD 9 mg/kg, ip, q1dx8",2.1 LCK
same,maximum tolerated dose (MTD),"[2]; CA1P, ip, q1dx8",9 mg/kg
same,control of tumor growth,"[3]; second experiment: CA1P and/or carboplatin and paclitaxel, same regime (FIG. 15)",considerable anti-tumor growth delay
same,single agent activity,[4],improved single agent activity
same,inhibition of tumor blood flow,[5],significantly inhibited tumor blood flow
same,inhibition of tumor blood flow,[6]; A2780 xenografts in mice,significantly inhibited tumor blood flow
same,potency of blood flow inhibition relative to CA4P,"[6]; daily single agent for ten days, human tumor xenografts in nude mice (N87, A2780; FIG. 9)",5-10 times
"COc1ccc(/C=C\c2cc(OC)c(OC)c(OC)c2)cc1OP(=O)(O)O [CA4P, combretastatin A-4 phosphate]",log cell kill (LCK),"[7]; CA4P single agent, optimal dose 150 mg/kg/inj, iv, everyday x10 (Monday thru Friday), advanced (300 mg) tumors",1.1 LCK
same,CA4P dose sufficient to enhance the antitumor activity of carboplatin,"[7]; iv, q4dx3, doses without single agent activity, carboplatin at a range of dose levels (FIG. 7)",12.5-25 mg/m^2
same,single agent antitumor activity,"[1]; CA4P administered Q4Dx3, separate experiment",no activity
same,maximum tolerated dose (MTD) as a single agent,[1]; CA4P single agent,> 250 mg/kg/inj
same,optimal CA4P dose required for therapeutic synergy,[1]; in combination with carboplatin (FIG. 3B),< 90 mg/kg/inj
same,minimum effective dose required for synergistic enhancement,[1],25 to 50 mg/kg
same,log cell kill (LCK),"[2]; CA4P at 150 mg/kg, ip",1.1 LCK
same,reduction of tumor blood flow,[8],67%
same,reduction of tumor blood flow,[9],87%
same,animals still alive at the conclusion of the experiment,[3]; first experiment (FIG. 14),30%
same,control of tumor growth,"[3]; first experiment: CA4P 100 mg/kg, paclitaxel 9 mg/kg, carboplatin 30 mg/kg, once a week for 4 weeks (FIG. 13)",not significantly more effective than paclitaxel and carboplatin
same,decrease in lymphocytes,[10]; [11],more than 20%
same,increase in neutrophils,[10]; [11],more than 2 fold
same,total white blood cell count,"[10]; 4 hours following treatment, CA4P 52 to 114 mg/m^2, nineteen patients, vs pretreatment",highly significant increase
same,time for white blood cell counts to return to normal levels,[10]; after treatment with CA4P,≤ 24 h
"CCc1c2c(nc3ccc(OC(=O)N4CCC(N5CCCCC5)CC4)cc13)-c1cc3c(c(=O)n1C2)COC(=O)[C@]3(O)CC [CPT-11, CPT-11 (irinotecan), reference compound]",log cell kill (LCK),[2]; CPT-11 at its MTD,3.3 LCK
"N.N.O=C([O-])C1(C(=O)[O-])CCC1.[Pt+2] [carboplatin, Carboplatin, reference compound]",complete response (disappearance of tumors),[1],not observed
same,log cell kill (LCK),"[1]; carboplatin alone at MTD 90 mg/kg/inj, iv, Q4Dx3, large sc tumors (300 mg)",1.4 LCK
same,tumor regression / shrinkage,[1]; carboplatin alone at MTD vs best CA4P + carboplatin combination (FIG. 3A),no tumor regression
same,maximum tolerated dose (MTD),"[1]; carboplatin, iv, Q4Dx3",90 mg/kg/inj
N.N.[Cl][Pt][Cl] [cisplatin],shrinkage of tumors following treatment,[7]; combination vs single agent cisplatin (FIG. 1),did not
same,maximum tolerated dose (MTD),[7]; injected every 4 days for 3 doses (Q4Dx3),7.5 mg/kg
same,log cell kill (LCK),"[7]; single agent cisplatin at MTD 7.5 mg/kg, iv, Q4Dx3",0.8 LCK
